Reference: the supplement of paper PMC10307832

Columns and labels:
Experiment in all cases: relative viability (nuclei count vs DMSO), 5 days (fraction); higher = more cells survive
Bemcentinib + Olaparib = compound: Nc1nc(Nc2ccc3c(c2)CC[C@@H](N2CCCC2)CC3)nn1-c1cc2c(nn1)-c1ccccc1CCC2 [Bemcentinib] + O=C(c1cc(Cc2n[nH]c(=O)c3ccccc23)ccc1F)N1CCN(C(=O)C2CC2)CC1 [Olaparib] (partner 8 µM)
Procedure, shortened: (§1)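 Lung cancer cell lines in 1536-well plates were dosed by pin tool the day after seeding, either with one drug alone or with a fixed anchor-drug dose plus five library-drug doses (not always all listed) in √10 steps. After 5 days, cells were fixed and their nuclei stained in one step (final 0.05% Triton X-100, 1% formaldehyde, 1 ug/ml Hoechst), then counted on 4× images. Relative viability is the nuclei count in treated wells divided by that in vehicle wells. Values are medians of duplicate plates.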

Bemcentinib + Phenformin = compound: Nc1nc(Nc2ccc3c(c2)CC[C@@H](N2CCCC2)CC3)nn1-c1cc2c(nn1)-c1ccccc1CCC2 [Bemcentinib] + N=C(N)NC(=N)NCCc1ccccc1 [Phenformin] (partner 250 µM)
Procedure, shortened: as §1

Bemcentinib + Navitoclax = compound: Nc1nc(Nc2ccc3c(c2)CC[C@@H](N2CCCC2)CC3)nn1-c1cc2c(nn1)-c1ccccc1CCC2 [Bemcentinib] + CC1(C)CCC(c2ccc(Cl)cc2)=C(CN2CCN(c3ccc(C(=O)NS(=O)(=O)c4ccc(N[C@H](CCN5CCOCC5)CSc5ccccc5)c(S(=O)(=O)C(F)(F)F)c4)cc3)CC2)C1 [Navitoclax] (partner 0.5 µM)
Procedure, shortened: as §1

[1] = compound: CC1=CC=C(C=C1)C(=O)CN2C3=C(CCCC3)SC2=N [Pifithrin_alpha] + CC(=O)Nc1cccc(-n2c(=O)n(C3CC3)c(=O)c3c(Nc4ccc(I)cc4F)n(C)c(=O)c(C)c32)c1 [Trametinib] (partner 0.02 µM)
Procedure, shortened: as §1

Row | Cell Line | relative viability (Bemcentinib + Olaparib; first compound 0.04 µM) | relative viability (Bemcentinib + Olaparib; first compound 0.1265 µM) | relative viability (Bemcentinib + Olaparib; first compound 0.4 µM) | relative viability (Bemcentinib + Olaparib; first compound 1.265 µM) | relative viability (Bemcentinib + Olaparib; first compound 4 µM) | relative viability (Bemcentinib + Phenformin; first compound 0.04 µM) | relative viability (Bemcentinib + Phenformin; first compound 0.1265 µM) | relative viability (Bemcentinib + Phenformin; first compound 0.4 µM) | relative viability (Bemcentinib + Phenformin; first compound 1.265 µM) | relative viability (Bemcentinib + Phenformin; first compound 4 µM) | relative viability (Bemcentinib + Navitoclax; first compound 0.04 µM) | relative viability (Bemcentinib + Navitoclax; first compound 0.1265 µM) | relative viability (Bemcentinib + Navitoclax; first compound 0.4 µM) | relative viability (Bemcentinib + Navitoclax; first compound 1.265 µM) | relative viability (Bemcentinib + Navitoclax; first compound 4 µM) | relative viability ([1]; first compound 1 µM) | relative viability ([1]; first compound 3.162 µM) | relative viability ([1]; first compound 10 µM) | relative viability ([1]; first compound 31.62 µM) | relative viability ([1]; first compound 100 µM)
1 | LXF-289 | 1.13 | 1.16 | 1.13 | 1.06 | 1.04 | 0.523 | 0.533 | 0.534 | 0.532 | 0.54 | 0.955 | 0.914 | 0.979 | 1 | 0.961 | 0.696 | 0.731 | 0.716 | 0.587 | 0.718
2 | NCI-H23 | 0.246 | 0.338 | 0.381 | 0.308 | 0.298 | 0.813 | 0.822 | 0.803 | 0.659 | 0.755 | 0.779 | 0.869 | 1.08 | 0.813 | 0.778 | 0.288 | 0.314 | 0.447 | 0.353 | 0.358
3 | NCI-H322M | 0.796 | 0.84 | 0.844 | 0.854 | 0.839 | 0.726 | 0.804 | 0.739 | 0.862 | 0.833 | 1.11 | 1.26 | 1.23 | 1.35 | 1.37 | 0.436 | 0.307 | 0.514 | 0.509 | 0.539
4 | NCI-H441 | 0.606 | 0.665 | 0.53 | 0.537 | 0.402 | 0.831 | 0.919 | 1.04 | 1.04 | 0.948 | 0.504 | 0.752 | 0.637 | 0.59 | 0.598 | 0.421 | 0.474 | 0.409 |  | 0.333
5 | NCI-H460 | 0.433 | 0.407 | 0.555 | 0.52 | 0.473 | 0.552 | 0.7 | 0.522 | 0.607 | 0.568 | 0.994 | 1.47 | 1.45 | 1.23 | 1.34 | 0.0943 | 0.075 | 0.155 | 0.0707 | 0.103
6 | NCI-H520 | 0.394 | 0.335 | 0.343 | 0.387 | 0.415 | 0.573 | 0.606 | 0.608 | 0.733 | 0.62 | 1.19 | 1.19 | 1.42 | 1.11 | 1.07 | 0.777 | 0.652 | 0.785 | 0.535 | 0.741
7 | NCI-H596 | 0.605 | 0.749 | 0.759 | 0.613 | 0.773 | 0.698 | 0.733 | 0.783 | 0.713 | 0.772 | 0.955 | 0.994 | 1.11 | 1.04 | 1.14 | 0.762 | 0.675 | 0.76 | 0.587 | 0.675
8 | NCI-H647 | 0.479 | 0.666 | 0.698 | 0.602 | 0.624 | 0.631 | 0.488 | 0.674 | 0.62 | 0.544 | 1.14 | 1.36 | 1.15 | 1.03 | 1.09 | 0.391 | 0.335 | 0.332 | 0.344 | 0.496
9 | NCI-H727 | 0.678 | 0.618 | 0.813 | 0.52 | 0.747 | 0.626 | 0.709 | 0.493 | 0.363 | 0.671 | 0.348 | 0.389 | 0.435 | 0.382 | 0.522 | 0.374 | 0.403 | 0.388 | 0.409 | 0.361
10 | NCI-H838 | 0.795 | 0.933 | 0.915 | 0.864 | 0.774 | 0.544 | 0.493 | 0.561 | 0.659 | 0.566 | 1.15 | 1.28 | 1.36 | 1.13 | 1.36 | 0.458 | 0.425 | 0.452 | 0.391 | 0.391
11 | NCI-H1355 | 0.748 | 0.811 | 0.766 | 0.773 | 0.75 | 0.442 | 0.444 | 0.483 | 0.42 | 0.484 | 0.947 | 0.943 | 1.08 | 0.941 | 0.976 | 0.39 | 0.362 | 0.298 | 0.31 | 0.282
12 | NCI-H1395 |  | 0.474 | 0.462 | 0.497 | 0.463 | 0.406 | 0.43 | 0.434 | 0.451 | 0.446 | 1.11 | 1.35 | 1.05 | 1.23 | 1.19 |  | 1.03 | 1.11 |  | 1.19
13 | NCI-H1437 | 0.639 | 0.656 | 0.718 | 0.651 | 0.592 | 0.305 | 0.33 | 0.375 | 0.3 | 0.296 | 1.09 | 1.16 | 1.23 | 1.13 | 1.15 | 0.532 | 0.491 | 0.355 | 0.336 | 0.264
14 | NCI-H1650 | 0.692 | 0.822 | 0.818 | 0.77 | 0.739 | 0.368 | 0.477 | 0.583 | 0.43 | 0.394 | 1.1 | 1.29 | 0.946 | 1.33 | 1.16 | 0.563 | 0.523 | 0.451 | 0.375 | 0.39
15 | NCI-H1651 | 0.201 | 0.204 | 0.187 | 0.189 | 0.191 | 0.352 | 0.324 | 0.283 | 0.316 | 0.354 | 0.966 | 1.16 | 1.35 | 1.14 | 1.24 | 0.833 | 0.821 | 0.863 | 0.851 | 0.958
